Laboratory results reported in ChEMBL document CHEMBL1255547, “Preparation and characterization of novel 4-bromo-3,4-dimethyl-1-phenyl-2-phospholene 1-oxide and the analogous phosphorus heterocycles or phospha sugars” (Bioorg Med Chem Lett, 2010).

Test system: U-937
Test: Cytotoxicity against human U937 cells after 48 hrs by MTT assat
Type: functional, cell-based
Conditions: U-937, 48 h

Compound	IC50 [µM]
O=P1(c2ccccc2)C=CCC1 (configuration not stated)	> 1000
CC1=CP(=O)(c2ccccc2)CC1 (configuration not stated)	900
CC1=CP(=O)(c2ccccc2)CC1C (configuration not stated)	350
O=P1(c2ccccc2)C=CC(Br)C1 (configuration not stated)	> 1000
CC1=CP(=O)(c2ccccc2)CC1Br (configuration not stated)	87
CC1=CP(=O)(c2ccccc2)CC1(C)Br (configuration not stated)	5.6
CCC1=CP(=O)(c2ccccc2)CC1Br (configuration not stated)	> 1000
